“And” between values parts separate entries of the source, which are not always exact repeats. Equal entries are not always repeated. Results filed as inconclusive are left out.
Tested on: CD8F1 mice, subcutaneous mammary adenocarcinoma, T/C%
Assay: NCI In Vivo Anticancer Drug Screen. Data for tumor model Mammary Adenocarcinoma CD8F1 (subcutaneous) in CD8F1
Conditions: higher = larger tumour
In short: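 Compound-treated versus vehicle-treated mice with transplantable tumors; survival or tumor size compared as T/C.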

[1] = endpoint: median tumor weight (est.), dose: 25.0 mg/kg/injection, schedule: Q07DX005 (ip), vehicle: saline with Tween-80
[2] = endpoint: median tumor weight (est.), dose: 200.0 mg/kg/injection, schedule: Q07DX005 (ip), vehicle: saline with Tween-80
[3] = endpoint: median tumor weight (est.), dose: 400.0 mg/kg/injection, schedule: Q07DX005 (ip), vehicle: saline with Tween-80
[4] = endpoint: median tumor weight (est.), dose: 12.5 mg/kg/injection, schedule: Q07DX005 (ip), vehicle: saline with Tween-80
[5] = endpoint: median tumor weight (est.), dose: 50.0 mg/kg/injection, schedule: Q07DX005 (ip), vehicle: saline with Tween-80
[6] = endpoint: median tumor weight (est.), dose: 100.0 mg/kg/injection, schedule: Q07DX005 (ip), vehicle: saline with Tween-80
[7] = endpoint: median tumor weight change, dose: 125.0 mg/kg/injection, schedule: Q01DX001 (ip), vehicle: saline
[8] = endpoint: median tumor weight change, dose: 250.0 mg/kg/injection, schedule: Q01DX001 (ip), vehicle: saline
[9] = endpoint: median tumor weight change, dose: 250.0 mg/kg/injection, schedule: Q01DX001 (ip), vehicle: saline with Tween-80

## C=CCc1cn(C2CC(O)C(CO)O2)c(=O)[nH]c1=O (stereo not given)
endpoint: median tumor weight (est.), dose: 25.0 mg/kg/injection, schedule: Q07DX005 (ip), vehicle: saline
  T/C: 58 % of control
endpoint: median tumor weight (est.), dose: 50.0 mg/kg/injection, schedule: Q07DX005 (ip), vehicle: saline
  T/C: 79 % of control
endpoint: median tumor weight (est.), dose: 100.0 mg/kg/injection, schedule: Q07DX005 (ip), vehicle: saline
  T/C: 86 % of control
endpoint: median tumor weight (est.), dose: 200.0 mg/kg/injection, schedule: Q07DX005 (ip), vehicle: saline
  T/C: 248 % of control
endpoint: median tumor weight (est.), dose: 400.0 mg/kg/injection, schedule: Q07DX005 (ip), vehicle: saline
  T/C: 75 % of control
endpoint: median tumor weight (est.), dose: 800.0 mg/kg/injection, schedule: Q07DX005 (ip), vehicle: saline
  T/C: 79 % of control

## Cc1c(N)nc([C@H](CC(N)=O)NC[C@H](N)C(N)=O)nc1C(=O)N[C@H](C(=O)N[C@H](C)[C@@H](O)CC(=O)N[C@H](C(=O)NC(O[C@@H]1O[C@@H](C)[C@@H](N)[C@@H](O)[C@H]1O)C(O)c1nc(-c2nc(C(=O)NCCCCN)cs2)cs1)[C@@H](C)O)[C@@H](O[C@@H]1O[C@@H](CO)[C@@H](O)[C@H](O)[C@@H]1O[C@H]1O[C@H](CO)[C@@H](O)[C@H](OC(N)=O)[C@@H]1O)c1c[nH]cn1 (stereo not given in full)
endpoint: median tumor weight (est.), dose: 1.0 mg/kg/injection, schedule: Q07DX005 (ip), vehicle: saline
  T/C: 55 % of control
endpoint: median tumor weight (est.), dose: 2.0 mg/kg/injection, schedule: Q07DX005 (ip), vehicle: saline
  T/C: 14 % of control and 26 % of control
endpoint: median tumor weight (est.), dose: 4.0 mg/kg/injection, schedule: Q07DX005 (ip), vehicle: saline
  T/C: 18 % of control and 19 % of control
endpoint: median tumor weight (est.), dose: 8.0 mg/kg/injection, schedule: Q07DX005 (ip), vehicle: saline
  T/C: 5 % of control
endpoint: median tumor weight (est.), dose: 16.0 mg/kg/injection, schedule: Q07DX005 (ip), vehicle: saline
  T/C: 5 % of control
endpoint: median tumor weight (est.), dose: 32.0 mg/kg/injection, schedule: Q07DX005 (ip), vehicle: saline
  T/C: 5 % of control
endpoint: median tumor weight change, dose: 4.0 mg/kg/injection, schedule: Q01DX001 (ip), vehicle: saline
  T/C: 98 % of control
endpoint: median tumor weight change, dose: 8.0 mg/kg/injection, schedule: Q01DX001 (ip), vehicle: saline
  T/C: 55 % of control
endpoint: median tumor weight change, dose: 16.0 mg/kg/injection, schedule: Q01DX001 (ip), vehicle: saline
  T/C: 104 % of control
endpoint: median tumor weight change, dose: 32.0 mg/kg/injection, schedule: Q01DX001 (ip), vehicle: saline
  T/C: 52 % of control

## COC1=CC(=O)N(C(=O)C2CSC(C(CO)NC(=O)c3csc(/C=N/O)n3)=N2)C1 (stereo not given)
endpoint: median tumor weight (est.), dose: 100.0 mg/kg/injection, schedule: Q07DX005 (ip), vehicle: Klucel (hydroxypropylcellulose) (HPC)
  T/C: 83 % of control
endpoint: median tumor weight (est.), dose: 200.0 mg/kg/injection, schedule: Q07DX005 (ip), vehicle: Klucel (hydroxypropylcellulose) (HPC)
  T/C: 102 % of control
endpoint: median tumor weight (est.), dose: 400.0 mg/kg/injection, schedule: Q07DX005 (ip), vehicle: Klucel (hydroxypropylcellulose) (HPC)
  T/C: 100 % of control

## CCC(CC)COC(=O)c1ccccc1C(=O)OCC(CC)CC
[1]
  T/C: 83 % of control
[2]
  T/C: 65 % of control
[3]
  T/C: 75 % of control
endpoint: median tumor weight (est.), dose: 800.0 mg/kg/injection, schedule: Q07DX005 (ip), vehicle: saline with Tween-80
  T/C: 64 % of control

## Cc1c(N)nc(C(CC(N)=O)NCC(N)C(N)=O)nc1C(=O)NC(C(=O)NC(C)C(O)C(C)C(=O)NC(C(=O)NCCc1nc(-c2nc(C(=O)NCCCNC(C)c3ccccc3)cs2)cs1)C(C)O)C(OC1OC(CO)C(O)C(O)C1OC1OC(CO)C(O)C(OC(N)=O)C1O)c1cnc[nH]1 (stereo not given)
endpoint: median tumor weight (est.), dose: 0.5 mg/kg/injection, schedule: Q07DX005 (ip), vehicle: water
  T/C: 122 % of control
endpoint: median tumor weight (est.), dose: 1.0 mg/kg/injection, schedule: Q07DX005 (ip), vehicle: water
  T/C: 123 % of control
endpoint: median tumor weight (est.), dose: 2.0 mg/kg/injection, schedule: Q07DX005 (ip), vehicle: water
  T/C: 89 % of control
endpoint: median tumor weight (est.), dose: 4.0 mg/kg/injection, schedule: Q07DX005 (ip), vehicle: water
  T/C: 29 % of control
endpoint: median tumor weight (est.), dose: 8.0 mg/kg/injection, schedule: Q07DX005 (ip), vehicle: water
  T/C: 78 % of control
endpoint: median tumor weight (est.), dose: 16.0 mg/kg/injection, schedule: Q07DX005 (ip), vehicle: water
  T/C: 21 % of control

## C(COCCOCC1CO1)OCCOCC1CO1 (stereo not given)
[4]
  T/C: 69 % of control
[1]
  T/C: 91 % of control
[5]
  T/C: 68 % of control
[6]
  T/C: 110 % of control
[3]
  T/C: 112 % of control

## CC(O)CCC(=O)c1ccoc1 (stereo not given)
endpoint: median tumor weight change, dose: 3.32 mg/kg/injection, schedule: Q03HX003 (ip), vehicle: saline
  T/C: 89 % of control
endpoint: median tumor weight change, dose: 6.65 mg/kg/injection, schedule: Q03HX003 (ip), vehicle: saline
  T/C: 101 % of control

## O=C1N[C@H]2[C@H](O)[C@H](O)[C@@H](O)[C@H](O)[C@@H]2c2cc3c(c(O)c21)OCO3
endpoint: median tumor weight change, dose: 1.25 mg/kg/injection, schedule: Q01DX005 (ip), vehicle: saline + alcohol
  T/C: 110 % of control
endpoint: median tumor weight change, dose: 2.5 mg/kg/injection, schedule: Q01DX005 (ip), vehicle: saline + alcohol
  T/C: 66 % of control
endpoint: median tumor weight change, dose: 5.0 mg/kg/injection, schedule: Q01DX005 (ip), vehicle: saline + alcohol
  T/C: 48 % of control

## COc1cc(Cc2nccc3cc(OC)c(OC)cc23)c(C(C)=O)c(OC)c1
endpoint: median tumor weight (est.), dose: 10.0 mg/kg/injection, schedule: Q07DX005 (ip), vehicle: suspension in saline
  T/C: 57 % of control
endpoint: median tumor weight (est.), dose: 20.0 mg/kg/injection, schedule: Q07DX005 (ip), vehicle: suspension in saline
  T/C: 45 % of control
endpoint: median tumor weight (est.), dose: 40.0 mg/kg/injection, schedule: Q07DX005 (ip), vehicle: suspension in saline
  T/C: 46 % of control
endpoint: median tumor weight (est.), dose: 80.0 mg/kg/injection, schedule: Q07DX005 (ip), vehicle: suspension in saline
  T/C: 61 % of control
endpoint: median tumor weight (est.), dose: 160.0 mg/kg/injection, schedule: Q07DX005 (ip), vehicle: suspension in saline
  T/C: 49 % of control

## COc1ccc([C@@]23Oc4cc(OC)cc(OC)c4[C@]2(O)[C@H](O)[C@H](C(=O)N(C)C)[C@H]3c2ccccc2)cc1
endpoint: median tumor weight change, dose: 2.5 mg/kg/injection, schedule: Q01DX001 (ip), vehicle: Klucel (hydroxypropylcellulose) (HPC)
  T/C: 212 % of control
endpoint: median tumor weight change, dose: 5.0 mg/kg/injection, schedule: Q01DX001 (ip), vehicle: Klucel (hydroxypropylcellulose) (HPC)
  T/C: 105 % of control
endpoint: median tumor weight change, dose: 10.0 mg/kg/injection, schedule: Q01DX001 (ip), vehicle: Klucel (hydroxypropylcellulose) (HPC)
  T/C: 72 % of control

## C/C=C/c1cc2c(c(=O)o1)C(=O)[C@@H](O)[C@H](C)O2
[4]
  T/C: 89 % of control
[1]
  T/C: 87 % of control
[5]
  T/C: 102 % of control
[6]
  T/C: 77 % of control
[2]
  T/C: 82 % of control

## COC1CC(C)C(OC)C2=CC(=O)C=C(NC(=O)/C(C)=C/C=C\C(C)C(OC(N)=O)/C(C)=C\C(C)C1OC)C2=O (stereo not given)
endpoint: median tumor weight change, dose: 6.25 mg/kg/injection, schedule: Q01DX001 (ip), vehicle: saline + alcohol
  T/C: 152 % of control
endpoint: median tumor weight change, dose: 12.5 mg/kg/injection, schedule: Q01DX001 (ip), vehicle: saline + alcohol
  T/C: 91 % of control
endpoint: median tumor weight change, dose: 25.0 mg/kg/injection, schedule: Q01DX001 (ip), vehicle: saline + alcohol
  T/C: 72 % of control

## Nc1c(Cl)c(Cl)nc(C(=O)O)c1Cl
endpoint: mean tumor weight, dose: 6.25 mg/kg/injection, schedule: Q01DX015 (ip), vehicle: saline
  T/C: 114 % of control
endpoint: mean tumor weight, dose: 6.25 mg/kg/injection, schedule: Q07DX007 (ip), vehicle: saline
  T/C: 94 % of control
endpoint: mean tumor weight, dose: 12.5 mg/kg/injection, schedule: Q01DX015 (ip), vehicle: saline
  T/C: 102 % of control
endpoint: mean tumor weight, dose: 12.5 mg/kg/injection, schedule: Q07DX007 (ip), vehicle: saline
  T/C: 102 % of control
endpoint: mean tumor weight, dose: 25.0 mg/kg/injection, schedule: Q01DX015 (ip), vehicle: saline
  T/C: 124 % of control
endpoint: mean tumor weight, dose: 25.0 mg/kg/injection, schedule: Q07DX007 (ip), vehicle: saline
  T/C: 83 % of control
endpoint: mean tumor weight, dose: 200.0 mg/kg/injection, schedule: Q07DX006 (ip), vehicle: saline
  T/C: 64 % of control
endpoint: mean tumor weight, dose: 300.0 mg/kg/injection, schedule: Q07DX006 (ip), vehicle: saline
  T/C: 168 % of control

## CC1=NN(c2cccc(S(=O)(=O)O)c2)C(=O)C1N=Nc1cc(Cl)cc(S(=O)(=O)O)c1O.CC1=NN(c2cccc(S(=O)(=O)O)c2)C(=O)C1N=Nc1cc(Cl)cc(S(=O)(=O)O)c1O.[Cr] (stereo not given)
[7]
  T/C: 245 % of control
[8]
  T/C: 184 % of control

## O=C(O)C1CC(O)CN1 (stereo not given)
[7]
  T/C: 71 % of control
[8]
  T/C: 64 % of control and 78 % of control
endpoint: median tumor weight change, dose: 500.0 mg/kg/injection, schedule: Q01DX001 (ip), vehicle: saline
  T/C: 59 % of control and 69 % of control
endpoint: median tumor weight change, dose: 1000.0 mg/kg/injection, schedule: Q01DX001 (ip), vehicle: saline
  T/C: 66 % of control and 70 % of control
endpoint: median tumor weight change, dose: 2000.0 mg/kg/injection, schedule: Q01DX001 (ip), vehicle: saline
  T/C: 13 % of control and 15 % of control

## Nc1ccc2ccc(NS(=O)(=O)N3CCCCC3)cc2c1
endpoint: median tumor weight change, dose: 125.0 mg/kg/injection, schedule: Q01DX001 (ip), vehicle: saline with Tween-80
  T/C: 66 % of control
[9]
  T/C: 73 % of control
endpoint: median tumor weight change, dose: 500.0 mg/kg/injection, schedule: Q01DX001 (ip), vehicle: saline with Tween-80
  T/C: 87 % of control
endpoint: median tumor weight change, dose: 1000.0 mg/kg/injection, schedule: Q01DX001 (ip), vehicle: saline with Tween-80
  T/C: 31 % of control

## CCCCCC1c2cc(O)ccc2OC1N1CCOCC1 (stereo not given)
[9]
  T/C: 204 % of control and 73 % of control

— PubChem BioAssay AID220 (DTP/NCI, 2004)
